Assay: molar heat capacity at constant pressure
Settings: 101.33 kPa, Crystal, Vacuum adiabatic calorimetry

O=C([O-])c1cnccn1.O=C([O-])c1cnccn1.O=C([O-])c1cnccn1.[Cr+3] [chromium(III) pyrazine-2-carboxylate]
Settings | molar heat capacity at constant pressure [J/K/mol]
78.86 K | 155.98
80 K | 158.16
80.64 K | 158.92
83.3 K | 162.11
85 K | 164.76
85.88 K | 166.03
88.38 K | 169.59
90 K | 171.35
90.8 K | 172.28
93.14 K | 175.35
95 K | 177.94
95.47 K | 178.53
97.73 K | 181.47
99.91 K | 184.54
100 K | 184.53
102.06 K | 187.64
104.19 K | 189.79
105 K | 191.12
106.26 K | 192.72
108.39 K | 195.56
110 K | 197.7
110.39 K | 198.32
112.38 K | 200.9
114.31 K | 203.62
115 K | 204.28
116.37 K | 206.2
118.23 K | 208.83
120 K | 210.86
120.16 K | 211.45
122.08 K | 214.08
125 K | 217.43
125.04 K | 217.8
128.55 K | 221.83
130 K | 223.99
131.51 K | 226.29
134.47 K | 230.41
135 K | 230.55
137.5 K | 234.21
140 K | 237.1
140.45 K | 237.72
143.48 K | 241.61
145 K | 243.64
146.44 K | 245.42
149.4 K | 249.27
150 K | 250.18
152.43 K | 252.82
155 K | 256.7
155.38 K | 257.11
158.34 K | 260.91
160 K | 263.21
161.37 K | 264.59
164.4 K | 269.32
165 K | 269.71
167.42 K | 273.11
170 K | 276.2
170.38 K | 276.93
173.34 K | 280.52
175 K | 282.68
176.44 K | 284.26
179.4 K | 287.73
180 K | 289.15
182.42 K | 292.31
185 K | 295.6
186.48 K | 297.74
190 K | 302.03
190.68 K | 302.64
193.71 K | 306.32
195 K | 308.46
196.73 K | 310.4
199.76 K | 313.83
200 K | 314.86
202.79 K | 317.64
205 K | 321.25
205.75 K | 321.74
208.71 K | 325.63
210 K | 327.63
211.73 K | 329.9
214.76 K | 333.75
215 K | 333.98
217.79 K | 337.53
220 K | 340.32
220.81 K | 341.42
223.77 K | 344.95
225 K | 346.64
226.8 K | 348.56
229.76 K | 352.76
230 K | 352.95
232.79 K | 356.86
235 K | 359.23
235.75 K | 360.47
238.84 K | 363.97
240 K | 365.49
242.01 K | 368.73
245 K | 371.73
245.86 K | 373.07
249.57 K | 377.69
250 K | 377.95
252.6 K | 381.55
255 K | 384.15
255.7 K | 385.19
258.73 K | 388.65
260 K | 390.33
261.82 K | 392.4
264.85 K | 396.6
265 K | 396.49
267.86 K | 400.48
270 K | 402.62
270.92 K | 403.75
273.93 K | 407.18
275 K | 408.73
276.89 K | 410.85
279.85 K | 414.48
280 K | 414.81
282.87 K | 418.25
285 K | 420.87
285.83 K | 421.97
288.79 K | 425.74
290 K | 426.91
291.89 K | 428.76
294.92 K | 432.73
295 K | 432.92
297.94 K | 436.5
298.15 K | 436.69
300 K | 438.9
300.28 K | 439.48
302.83 K | 442.7
305 K | 444.86
305.99 K | 446.12
309.09 K | 450.09
310 K | 450.79
312.18 K | 454.16
315 K | 456.7
315.35 K | 457.58
318.38 K | 461.21
320 K | 462.57
321.54 K | 464.38
324.64 K | 468.15
325 K | 468.42
327.67 K | 471.32
330 K | 474.25
330.76 K | 475.09
333.79 K | 478.57
335 K | 480.04
336.88 K | 481.84
339.91 K | 485.31
340 K | 485.8
343.01 K | 488.64
345 K | 491.54
345.97 K | 491.76
349.05 K | 495.84
350 K | 497.25
352.03 K | 499.11
355 K | 502.92
355.1 K | 502.61
358.14 K | 506.45
360 K | 508.57
361.31 K | 510.02
364.47 K | 513.54
365 K | 514.18
367.57 K | 517.31
370 K | 519.77
370.74 K | 520.43
373.88 K | 524.09
375 K | 525.32
377.03 K | 527.59
380 K | 530.85
380.17 K | 530.85
383.23 K | 534.71
385 K | 536.34
386.16 K | 537.95
389.19 K | 541.27
390 K | 541.8
392.45 K | 544.56
395 K | 547.22
395.47 K | 547.81
400 K | 552.62

From the NIST ThermoML archive (doi:10.1016/j.tca.2012.05.023)
